In PubChem BioAssay AID248 (DTP/NCI, 2004):
Several values for one entry are separate records, joined by “and”; a condition that tells them apart may be missing. Identical values can stand only once. Toxic doses and inconclusive results are not listed. Rule as the data show it: active = T/C of 150% or more; inactive = T/C below 125%.

Tested on: L1210 leukemia ip in BDF1 mice, survival T/C
Assay: NCI In Vivo Anticancer Drug Screen. Data for tumor model L1210 Leukemia (intraperitoneal) in B6D2F1 (BDF1) mice
Settings: endpoint: mean survival time, higher = longer survival
Method in brief: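 Antitumor effect is assessed in tumor-bearing animals. Survival in the compound arm is compared with a vehicle-dosed control arm and expressed as their quotient.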

[1] = dose: 100.0 mg/kg/injection, schedule: Q04DX003 (ip), vehicle: saline with Tween-80
[2] = dose: 200.0 mg/kg/injection, schedule: Q04DX003 (ip), vehicle: saline with Tween-80
[3] = dose: 400.0 mg/kg/injection, schedule: Q04DX003 (ip), vehicle: saline with Tween-80
[4] = dose: 100.0 mg/kg/injection, schedule: Q01DX001 (ip), vehicle: carboxymethylcellulose (CMC)
[5] = dose: 200.0 mg/kg/injection, schedule: Q01DX001 (ip), vehicle: carboxymethylcellulose (CMC)
[6] = dose: 100.0 mg/kg/injection, schedule: Q01DX001 (ip), vehicle: Klucel (hydroxypropylcellulose) (HPC)
[7] = dose: 200.0 mg/kg/injection, schedule: Q01DX001 (ip), vehicle: Klucel (hydroxypropylcellulose) (HPC)
[8] = dose: 400.0 mg/kg/injection, schedule: Q01DX001 (ip), vehicle: Klucel (hydroxypropylcellulose) (HPC)
[9] = dose: 100.0 mg/kg/injection, schedule: Q01DX009 (ip), vehicle: Klucel (hydroxypropylcellulose) (HPC)
[10] = dose: 100.0 mg/kg/injection, schedule: Q04DX003 (ip), vehicle: Klucel (hydroxypropylcellulose) (HPC)
[11] = dose: 200.0 mg/kg/injection, schedule: Q01DX009 (ip), vehicle: Klucel (hydroxypropylcellulose) (HPC)
[12] = dose: 200.0 mg/kg/injection, schedule: Q04DX003 (ip), vehicle: Klucel (hydroxypropylcellulose) (HPC)
[13] = dose: 400.0 mg/kg/injection, schedule: Q01DX009 (ip), vehicle: Klucel (hydroxypropylcellulose) (HPC)
[14] = dose: 400.0 mg/kg/injection, schedule: Q04DX003 (ip), vehicle: Klucel (hydroxypropylcellulose) (HPC)
[15] = dose: 100.0 mg/kg/injection, schedule: Q01DX009 (ip), vehicle: saline with Tween-80
[16] = dose: 200.0 mg/kg/injection, schedule: Q01DX009 (ip), vehicle: saline with Tween-80
[17] = dose: 100.0 mg/kg/injection, schedule: Q04DX003 (ip), vehicle: acetone
[18] = dose: 200.0 mg/kg/injection, schedule: Q04DX003 (ip), vehicle: acetone
[19] = dose: 400.0 mg/kg/injection, schedule: Q04DX003 (ip), vehicle: acetone
[20] = dose: 100.0 mg/kg/injection, schedule: Q01DX001 (ip), vehicle: saline
[21] = dose: 200.0 mg/kg/injection, schedule: Q01DX001 (ip), vehicle: saline
[22] = dose: 400.0 mg/kg/injection, schedule: Q01DX001 (ip), vehicle: saline
[23] = dose: 50.0 mg/kg/injection, schedule: Q01DX001 (ip), vehicle: saline

Measured: T/C

CCOC(=O)c1sc(SSc2nc(C)c(C(=O)OCC)s2)nc1C
inactive: [1] 102 % of control | [2] 94 % of control | [3] 91 % of control

NC1CON(C(c2ccccc2)(c2ccccc2)c2ccccc2)C1=O (stereo not drawn)
inactive: [4] 94 % of control | [5] 89 % of control

Nc1ncc(-c2ccccc2)nn1 (tested in a mixture with another compound)
inactive: [6] 90 % of control | [7] 90 % of control | [8] 116 % of control

CCCCCCCCc1c(N)nc(N)[nH]c1=O
inactive: [6] 99 % of control | [7] 92 % of control | [8] 92 % of control

NNC(=O)C(Oc1ccccc1Cl)c1ccccc1 (stereo not drawn)
inactive: [4] 105 % of control | [5] 97 % of control | dose: 400.0 mg/kg/injection, schedule: Q01DX001 (ip), vehicle: carboxymethylcellulose (CMC) 105 % of control

CCCCCCCC[N+](C)(CCCCCCCC)CCCCCCCC
inactive: dose: 0.04 mg/kg/injection, schedule: Q01DX009 (ip), vehicle: saline 86 % of control | dose: 0.09 mg/kg/injection, schedule: Q01DX009 (ip), vehicle: saline 100 % of control | dose: 0.19 mg/kg/injection, schedule: Q01DX009 (ip), vehicle: saline 101 % of control | dose: 0.19 mg/kg/injection, schedule: Q04DX003 (ip), vehicle: acetone 112 % of control | dose: 0.28 mg/kg/injection, schedule: Q01DX009 (ip), vehicle: saline with Tween-80 114 % of control | dose: 0.39 mg/kg/injection, schedule: Q01DX001 (ip), vehicle: saline with Tween-80 105 % of control | dose: 0.43 mg/kg/injection, schedule: Q01DX009 (ip), vehicle: saline with Tween-80 116 % of control | dose: 0.5 mg/kg/injection, schedule: Q01DX015 (ip), vehicle: saline 97 % of control | dose: 0.64 mg/kg/injection, schedule: Q01DX009 (ip), vehicle: saline with Tween-80 118 % of control | dose: 0.78 mg/kg/injection, schedule: Q01DX001 (ip), vehicle: saline with Tween-80 90 % of control | dose: 1.0 mg/kg/injection, schedule: Q01DX015 (ip), vehicle: saline 95 % of control | dose: 1.56 mg/kg/injection, schedule: Q01DX001 (ip), vehicle: saline with Tween-80 114 % of control

O=c1c(N=Nc2ccc(Cl)cc2)c(O)n(-c2ccc(Br)cc2)c(=S)n1-c1ccccc1
inactive: dose: 50.0 mg/kg/injection, schedule: Q01DX001 (ip), vehicle: Klucel (hydroxypropylcellulose) (HPC) 97 % of control | [6] 101 % of control | [7] 97 % of control

CN1CCC=C(CN2c3ccccc3Sc3ccc(Cl)cc32)C1
inactive: dose: 12.5 mg/kg/injection, schedule: Q01DX009 (ip), vehicle: saline 119 % of control | dose: 12.5 mg/kg/injection, schedule: Q04DX003 (ip), vehicle: saline 101 % of control | dose: 16.5 mg/kg/injection, schedule: Q04DX003 (ip), vehicle: saline 98 % of control | dose: 25.0 mg/kg/injection, schedule: Q01DX009 (ip), vehicle: saline 113 % of control | dose: 25.0 mg/kg/injection, schedule: Q04DX003 (ip), vehicle: saline 105 % of control | dose: 37.5 mg/kg/injection, schedule: Q04DX003 (ip), vehicle: saline 105 % of control | dose: 50.0 mg/kg/injection, schedule: Q01DX009 (ip), vehicle: saline 114 % of control | dose: 50.0 mg/kg/injection, schedule: Q04DX003 (ip), vehicle: saline 110 % of control

CCOC(=O)c1cc([N+](=O)[O-])oc1C
inactive: [9] 102 % of control | [10] 98 % of control | [11] 102 % of control | [12] 94 % of control | [13] 112 % of control | [14] 100 % of control

CC(=O)N1CSCC1C(=O)O (stereo not drawn)
inactive: [10] 89 % of control | [12] 94 % of control | [14] 91 % of control

O=C(Nc1ccc(Cl)cc1)c1cccnc1
inactive: [15] 95 % of control | [1] 96 % of control | [16] 97 % of control | [2] 98 % of control | [3] 91 % of control

CNC(c1ccncc1)C(NC)c1ccncc1 (stereo not drawn)
inactive: [9] 94 % of control | [10] 95 % of control | [11] 91 % of control | [12] 95 % of control | [13] 96 % of control | [14] 95 % of control

O=[N+]([O-])c1ccc(N/N=C2/CCSc3ccccc32)cc1
inactive: [17] 100 % of control | [18] 99 % of control | [19] 88 % of control

c1ccc2c(c1)oc1ccccc12
inactive: [20] 102 % of control | [21] 102 % of control | [22] 96 % of control

O=C(Nc1ccccc1)Nc1ccccn1
inactive: dose: 12.5 mg/kg/injection, schedule: Q04DX003 (ip), vehicle: saline with Tween-80 95 % of control | dose: 25.0 mg/kg/injection, schedule: Q04DX003 (ip), vehicle: saline with Tween-80 95 % of control

Nc1ccc(NC(=S)Nc2ccccc2)cc1
inactive: [9] 104 % of control | [10] 93 % of control | [11] 101 % of control | [12] 95 % of control | [13] 97 % of control | [14] 92 % of control

CC(=O)N(N=Nc1ccc(Cl)cc1)c1ccc(Cl)cc1
inactive: dose: 50.0 mg/kg/injection, schedule: Q01DX009 (ip), vehicle: saline with Tween-80 98 % of control | [15] 98 % of control | [16] 98 % of control

CC1([N+](=O)[O-])COP(=O)(OCCc2ccccc2)OC1 (stereo not drawn)
inactive: [23] 95 % of control | [20] 98 % of control | [21] 93 % of control | [22] 98 % of control

O=C(O)c1cc([N+](=O)[O-])ccc1Br
inactive: dose: 50.0 mg/kg/injection, schedule: Q01DX009 (ip), vehicle: Klucel (hydroxypropylcellulose) (HPC) 89 % of control | [9] 86 % of control | [11] 93 % of control

O=C(NCCBr)Nc1cccc2c1Cc1ccccc1-2
inactive: [9] 105 % of control | [10] 95 % of control | [11] 96 % of control | [12] 95 % of control | [13] 94 % of control | [14] 97 % of control

COC(=O)C1CN(S(=O)(=O)c2ccccc2)c2ccccc2N1S(=O)(=O)c1ccccc1 (stereo not drawn)
inactive: [17] 95 % of control | [18] 100 % of control | [19] 94 % of control

Cc1ccc(NC(=O)OCCCl)cc1
inactive: [20] 117 % of control | [21] 112 % of control

CC1(C)C(=NNC(N)=O)C(C)(C)C1=NNC(N)=O
inactive: [20] 96 % of control | [10] 91 % of control | [21] 94 % of control | [22] 90 % of control

O=C(O)c1cccc(S)c1
inactive: dose: 100.0 mg/kg/injection, schedule: Q04DX002 (ip), vehicle: saline with Tween-80 113 % of control | dose: 200.0 mg/kg/injection, schedule: Q04DX002 (ip), vehicle: saline with Tween-80 113 % of control

C[N+](C)(C)CCNC(=O)C12CC3CC(CC(C3)C1)C2
inactive: dose: 25.0 mg/kg/injection, schedule: Q04DX002 (ip), vehicle: saline 89 % of control | dose: 50.0 mg/kg/injection, schedule: Q04DX002 (ip), vehicle: saline 94 % of control | dose: 100.0 mg/kg/injection, schedule: Q04DX002 (ip), vehicle: saline 86 % of control

O=[N+]([O-])C=C([SH2+])[SH2+].O=[N+]([O-])C=C([SH2+])[SH2+].[Pt+2].c1ccc(C[P+](c2ccccc2)(c2ccccc2)c2ccccc2)cc1
inactive: [23] 95 % of control | [20] 110 % of control | [21] 96 % of control

CCCSc1ncnc2nc[nH]c12
inactive: dose: 31.3 mg/kg/injection, schedule: Q01DX009 (ip), vehicle: saline 93 % of control and 100 % of control | dose: 62.5 mg/kg/injection, schedule: Q01DX009 (ip), vehicle: saline 97 % of control and 121 % of control | dose: 125.0 mg/kg/injection, schedule: Q01DX009 (ip), vehicle: saline 121 % of control | dose: 250.0 mg/kg/injection, schedule: Q01DX009 (ip), vehicle: saline 100 % of control
